According to patent US20090048179A1, “USE OF 5-PHOSPHODIESTERASE INHIBITORS TO ENHANCE THE PERMEABILITY OF THE BLOOD-BRAIN BARRIER OF ABNORMAL BRAIN TISSUE AND THE BLOOD-TUMOR BARRIER” (CEDARS-SINAI MEDICAL CENTER, priority 2005, published 2009):
Counter-ions that a name gives are not always drawn. No end group written: not given here.

Tests used:
9L gliosarcoma = assay: Survival study, 9L/Luc gliosarcoma-bearing rats, treatment for three days from day 4; type: in vivo, rat; settings: vardenafil 10 mg/kg oral, Adriamycin 2 mg/kg i.v., saline 32±2
Source text: A p-value of less than 0.05 was considered statistically significant.

9L gliosarcoma (9L/Luc) = assay: Tumor size monitoring by bioluminescence imaging and histology; settings: day 9 after the last treatment; saline (2.21±1.27)×10^6
9L glioma = assay: Survival study, 9L/Fischer rats, treatment on days 7, 8 and 9 post tumor implantation; type: in vivo, rat; settings: treatment on days 7, 8 & 9; Levitra 10 mg/kg oral, Adriamycin 2 mg/kg i.v.; control 21.8
Source text: Adult, female Fischer rats (180-200 g) were implanted with 9L glioma cells (100,000 cells). […] 15, 2006.
Rats were monitored daily to determine survival times of the tumor-bearing rats for either death or when animals became moribund, euthanasia was employed.

[1] = tested on: blood-tumor barrier (BTB) of 9L gliosarcoma brain tumors; assay: [14C] sucrose transport (Ki) from blood into 9L brain tumors, quantitative autoradiography; type: in vivo, rat
[2] = tested on: human breast cancer cell line MDA-MB-231; assay: In vitro 14C-sucrose transport across tumor cells in transwell, MDA-MB-231; type: cell-based
Procedure: (§1) In addition to endothelial cells, the inventor tested whether the inhibition of PDE5 has any effect on tracer transport in other tumor cells. In the studies, two tumor cell lines (human brain metastatic lung cancer cell line CRL-5904 and human breast cancer cell line MDA-MB-231) were tested.

[3] = tested on: vessel endothelial cells derived from lung tissues (PVEC); assay: In vitro cellular transport of 14C-sucrose, lung vessel endothelial cells; type: cell-based; settings: PVECs
[4] = Animal physiologic parameters (mean arterial blood pressure, blood gases, side effects); type: in vivo, rat; settings: for reduction in mean-arterial blood pressure: BK femoral infusion, sildenafil 5-100 mg/kg or vardenafil 1-20 mg/kg oral; for detectable side effects (e.g. hypotension): oral doses used in the rats
Procedure: For Ki study described below, six days after tumor implantation, the rats were anesthetized with ketamine/xylazine. One femoral vein was cannulated for administration of the appropriate drug and the radiotracer; one femoral artery was cannulated to withdraw arterial blood, and another femoral artery was cannulated to monitor systemic blood pressure. Body temperature was maintained at 37° C., and arterial blood gases, blood pressure and hematocrit were monitored.
Mean-arterial blood pressures were decrease approximately 30% secondary to the femoral infusion of BK.

[5] = tested on: human brain metastatic lung cancer cell line CRL-5904; assay: In vitro 14C-sucrose transport across tumor cells in transwell, CRL-5904; type: cell-based
Procedure: as §1

[6] = tested on: mouse brain endothelial cells; assay: In vitro cellular transport of 14C-sucrose, brain endothelial cells; type: cell-based
cGMP [7] = assay: Brain cGMP immunohistochemistry in 9L tumor-bearing rats; type: in vivo, rat; settings: oral vardenafil 10 mg/kg
cGMP [8] = assay: Plasma cGMP assay in 9L tumor-bearing rats; type: in vivo, rat
Procedure: cGMP levels were determined using a ELISA-based kit (Cayman Chemical Co., Ann Arbor, Mich.) for plasma and immunohistocytochemistry with anti-cGMP antibody (Chemicon Corp.) for tissue sections.
Intracerebral inoculations of 9L tumor cells were performed as described above. […] Different groups of rats were anesthetized 5 minutes before and at 30, 60, 90 and 120 minutes after treatment respectively and the femoral vein was cannulated. Blood was collected and the plasma was separated. The cGMP concentration in the plasma was determined using a commercially available ^125I-labeled cGMP assay kit (Amersham, Arlington Heights, Ill.). cGMP content was expressed as pmol/ml of plasma.

caveolae endocytosis = assay: In vitro cellular transport of 14C-sucrose with inhibitor of caveolae endocytosis; type: cell-based
Source text: To determine whether this is the case for PDE5 inhibitors, the inventor used filipin, an inhibitor of caveolae endocytosis, in the in vitro cellular transport study (FIG. 21; P<0.05 vs. other two treatments). As shown, fillipin abolished the increased transport of ^14C-sucrose by sildenafil. […] As vesicular transport is not specific to brain microvessels per se, the inventor, while not wishing to be bound by any particular theory, believes the mechanism may be responsible for the increased cellular permeability by PDE5 inhibitors in non-CNS cells studied above.

[9] = femoral infusion of BK or oral sildenafil or vardenafil

For `COc1cccc2c1C(=O)c1c(O)c3c(c(O)c1C2=O)C[C@@](O)(C(=O)CO)C[C@@H]3O[C@H]1C[C@H](N)[C@H](O)[C@H](C)O1` [Adriamycin® (doxorubicin), doxorubicin hydrochloride], the mean survival time (9L gliosarcoma) was 42 ± 2 days, the “intracerebral tumor size (IVIS bioluminescence)” value (9L gliosarcoma (9L/Luc)) was “(1.03±0.28)×10^6” and the “Mean Survival Days, Mean” value (9L glioma) was 30 days.

In the case of “iberiotoxin (QFTDVDCSVSKECWSVCKDLFGVDRGKCMGKKCRCYQ; UniProt P24663 1-37, looked up)”, the “effect on vardenafil-induced BTB transport increase” value ([1]; iberiotoxin 0.26 μg/kg/min infused 15 min with oral vardenafil 10 mg/kg) is reported as “abolished”.

In the case of `CCCc1nn(C)c2c(=O)[nH]c(-c3cc(S(=O)(=O)N4CCN(C)CC4)ccc3OCC)nc12` [sildenafil], the “dose giving maximal effect on permeability” value ([1]; rat, in vivo) is reported as 50 mg/kg, the “increase in BTB permeability” value ([1]; rat, in vivo) is reported as 1.8 fold and the “time of maximum transport across the BTB into tumor tissues after administration” value ([1]; rat, in vivo) is reported as 60 min. The “14C-sucrose transport across cells seeded in the transwell” value [2] was “increased”, the 14C-sucrose transport [3] was “significantly increased” and the “reduction in mean-arterial blood pressure” value [4] was 10%. For the same compound, the “arterial blood pH, carbon dioxide, and partial pressure of oxygen” value (shortened to “arterial blood pH, carbon dioxide”) [4, 9] was “not changed significantly”, the “detectable side effects (e.g. hypotension)” value (shortened to “detectable side effects”) [4] was “did not result in any detectable side effects” and the “detectable side effects” value ([4]; listed as Viagra®) was “did not induce hypotension”. For the same compound, the “14C-sucrose transport across cells seeded in the transwell” value [5] was “increased” and the 14C-sucrose transport [6] was “significantly increased”.

In the case of `CCCc1nc(C)c2c(=O)[nH]c(-c3cc(S(=O)(=O)N4CCN(CC)CC4)ccc3OCC)nn12` [vardenafil], the mean survival time (9L gliosarcoma) is reported as 35 ± 1 days, the “time at which tumor cGMP immunostaining returned to the baseline” value (cGMP [7]) is reported as 90 min and the “reduction in mean-arterial blood pressure” value [4] is reported as 10%. The “arterial blood pH, carbon dioxide” value [4, 9] was “not changed significantly”, the “detectable side effects” value [4] was “did not result in any detectable side effects” and the “detectable side effects” value ([4]; listed as Levitra®) was “did not induce hypotension”. For the same compound, the “Mean Survival Days, Mean” value (9L glioma) was 22.7 days, the “plasma cGMP level” value (cGMP [8]; 30 minutes after oral vardenafil 10 mg/kg, control 0.72±0.48) was 54.96 ± 25.13 pg/mL and the “plasma cGMP level” value (cGMP [8]; 60 minutes after oral vardenafil 10 mg/kg) was 79.20 ± 37.36 pg/mL. For the same compound, the “plasma cGMP level” value (cGMP [8]; 90 minutes after oral vardenafil 10 mg/kg) was 30.13 ± 17.82 pg/mL and the “time of peak plasma cGMP concentration” value (cGMP [8]; oral vardenafil 10 mg/kg) was 60 min.

For RPPGFSPFR [BK, Bradykinin], the “arterial blood pH, carbon dioxide” value ([4]; rat, in vivo, po) was “not changed significantly”.

For `CCCCC[C@@H](O)[C@H]1C(=O)O[C@H](C)[C@@H](O)/C=C/C=C/C=C/C=C/C=C(\C)[C@@H](O)C[C@H](O)C[C@H](O)C[C@H](O)C[C@H](O)C[C@H](O)C[C@@H]1O` [fillipin, filipin], the “effect on the increased transport of 14C-sucrose by sildenafil” value (caveolae endocytosis) was “abolished”.
